Test results published in the NIST ThermoML archive (doi:10.1021/acs.jced.8b01196).

Tests used:
[1] = refractive index (Na D-line) (dimensionless); conditions: 101.33 kPa, Liquid, Standard Abbe refractometry
[2] = Boiling temperature at pressure P; conditions: Liquid, Ebulliometric method (Recirculating still)
[3] = Liquid; for mass density: 101.33 kPa, Vibrating tube method; for vapor or sublimation pressure: Ebulliometric method (Recirculating still)

CCC(=O)C(C)=O [2,3-pentanedione]
Conditions | Boiling temperature at pressure P [°C] | mass density [kg/m3] | refractive index | vapor or sublimation pressure [kPa]
[1], 292.15 K | – | – | 1.412 | –
[2], 15.33 kPa | 58.52 | – | – | –
[2], 30.35 kPa | 74.90 | – | – | –
[2], 45.32 kPa | 85.6 | – | – | –
[2], 50.34 kPa | 88.2 | – | – | –
[2], 60.35 kPa | 93.66 | – | – | –
[2], 65.35 kPa | 96.10 | – | – | –
[2], 75.35 kPa | 100.40 | – | – | –
[2], 90.29 kPa | 106.11 | – | – | –
[2], 100.75 kPa | 109.37 | – | – | –
[2], 105.45 kPa | 111.8 | – | – | –
[2], 120.51 kPa | 115.89 | – | – | –
[2], 135.32 kPa | 118.22 | – | – | –
[2], 150.5 kPa | 122.59 | – | – | –
[2], 165.5 kPa | 125.8 | – | – | –
[2], 180.57 kPa | 128.56 | – | – | –
[2], 195.59 kPa | 129.97 | – | – | –
[2], 200.68 kPa | 132.47 | – | – | –
[3], 292.15 K | – | 982 | – | –
[3], 382.52 K | – | – | – | 100
[3], 395.74 K | – | – | – | 150
[3], 405.62 K | – | – | – | 200

CC(C)=O [acetone]
Conditions | Boiling temperature at pressure P [°C] | mass density [kg/m3] | refractive index | vapor or sublimation pressure [kPa]
[1], 293.15 K | – | – | 1.359 | –
[2], 40.32 kPa | 31.47 | – | – | –
[2], 50.34 kPa | 37.0 | – | – | –
[2], 60.36 kPa | 41.64 | – | – | –
[2], 70.3 kPa | 45.74 | – | – | –
[2], 80.32 kPa | 49.40 | – | – | –
[2], 90.34 kPa | 52.70 | – | – | –
[2], 100.38 kPa | 55.74 | – | – | –
[2], 120.34 kPa | 61.20 | – | – | –
[2], 140.53 kPa | 65.91 | – | – | –
[2], 150.68 kPa | 68.4 | – | – | –
[2], 160.33 kPa | 70.12 | – | – | –
[2], 180.53 kPa | 73.92 | – | – | –
[2], 200.55 kPa | 77.42 | – | – | –
[2], 220.29 kPa | 80.67 | – | – | –
[3], 298.15 K | – | 785 | – | –
[3], 328.89 K | – | – | – | 100
[3], 341.5 K | – | – | – | 150
[3], 350.57 K | – | – | – | 200

CC=O [ethanal]
Conditions | Boiling temperature at pressure P [°C] | refractive index | vapor or sublimation pressure [kPa]
[1], 293.15 K | – | 1.337 | –
[2], 100.68 kPa | 20.37 | – | –
[2], 105.38 kPa | 21.58 | – | –
[2], 115.48 kPa | 23.93 | – | –
[2], 135.54 kPa | 28.19 | – | –
[2], 150.37 kPa | 31.16 | – | –
[2], 165.44 kPa | 33.89 | – | –
[2], 180.92 kPa | 36.44 | – | –
[2], 195.74 kPa | 39 | – | –
[2], 200.79 kPa | 39.83 | – | –
[2], 210.95 kPa | 41.10 | – | –
[2], 225.32 kPa | 43.23 | – | –
[2], 240.4 kPa | 45.2 | – | –
[3], 293.52 K | – | – | 100
[3], 304.31 K | – | – | 150
[3], 312.98 K | – | – | 200
